Results as given in patent publication US12655142B2 (Merck Patent GmbH, priority 2019, dated 2026).

Tests used:
c-Kit(V654A) = target: T1, c-Kit(V654A) (Homo sapiens, UniProt P10721, V654A); test: c-Kit(V654A) assay (33P-ATP filter binding kinase assay); assay type: biochemical; conditions: recombinant human c-Kit aa 544-end V654A, ATP 200 μM
T1 construct: recombinant human c-Kit, amino acids 544-end containing the V654A mutation; GST (N)
Summary of the method: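 Radiometric filter-binding read-out: substrate 33P incorporation counted by scintillation after P30 filtermat washes in 75 mM phosphoric acid and methanol. Enzyme: N-GST recombinant human c-Kit aa 544-end carrying V654A.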

[1] = target: T2, GIST430 cell line expressing constitutive active cKIT receptor tyrosine kinase (Δ560-576 deletion) (Homo sapiens, UniProt P10721, DEL560-576); test: Cellular cKIT autophosphorylation (phospho-Y307-cKIT, Luminex bead assay) in GIST430 cells; assay type: cell-based; conditions: cKIT autophosphorylation, GIST430 cells, compounds 45 min; read-out: GIST 430 IC50
T2 construct: endogenous in cells; host or cells: GIST430 cells
T2 sequence (P10721 with tags, fused parts or gaps DEL560-576): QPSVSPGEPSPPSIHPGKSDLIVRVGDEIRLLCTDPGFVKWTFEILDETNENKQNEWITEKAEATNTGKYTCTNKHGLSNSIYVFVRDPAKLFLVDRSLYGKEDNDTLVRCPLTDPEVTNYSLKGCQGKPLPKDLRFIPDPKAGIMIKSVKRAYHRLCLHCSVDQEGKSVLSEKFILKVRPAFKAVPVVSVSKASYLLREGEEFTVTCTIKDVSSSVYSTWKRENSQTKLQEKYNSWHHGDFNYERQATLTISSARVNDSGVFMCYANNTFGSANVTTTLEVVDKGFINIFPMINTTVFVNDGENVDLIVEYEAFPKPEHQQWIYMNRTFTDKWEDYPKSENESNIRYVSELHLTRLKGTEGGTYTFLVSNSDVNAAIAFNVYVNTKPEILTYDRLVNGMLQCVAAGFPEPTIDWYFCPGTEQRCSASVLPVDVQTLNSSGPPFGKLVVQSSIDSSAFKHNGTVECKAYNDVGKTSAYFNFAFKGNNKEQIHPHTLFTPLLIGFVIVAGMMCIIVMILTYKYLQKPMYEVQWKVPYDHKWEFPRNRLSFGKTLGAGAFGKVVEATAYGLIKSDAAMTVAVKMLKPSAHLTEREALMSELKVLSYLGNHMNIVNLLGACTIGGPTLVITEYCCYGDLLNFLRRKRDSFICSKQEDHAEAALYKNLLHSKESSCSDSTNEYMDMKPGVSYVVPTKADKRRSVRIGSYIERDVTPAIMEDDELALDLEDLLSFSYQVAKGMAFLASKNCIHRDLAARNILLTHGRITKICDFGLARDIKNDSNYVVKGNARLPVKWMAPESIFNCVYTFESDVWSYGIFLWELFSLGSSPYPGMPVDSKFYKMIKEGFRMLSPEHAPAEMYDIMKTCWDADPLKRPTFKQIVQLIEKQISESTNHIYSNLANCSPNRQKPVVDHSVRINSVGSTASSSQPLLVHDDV
Method: Assay Principle for Cellular Testing of cKIT Mutant Inhibitors
The GIST430 cell line expressing constitutive active cKIT receptor tyrosine kinase (Δ560-576 deletion) and the Imatinib resistant GIST430/654 cell line expressing mutated constitutively active cKIT receptor tyrosine kinase (Δ560-576 deletion and V654A point mutation) were employed for assessing cellular potency of compounds. Cellular activity of mutant cKIT was determined by the degree of cKIT autophosphorylation at tyrosine 307 using a Luminex-based bead assay. GIST430 cells were plated with 22,000 cells per well of a 96-well plate in 100 μl medium (85% IMDM/15% FCS) and GIST430/654 cells were plated with 25,000 cells per well of a 96-well plate in 100 μl medium (85% IMDM/15% FCS supplemented with 100 nM Imatinib). At the following day compounds were added in a serial dilution for 45 min. Then, cells were lysed with 90 μl lysis buffer (20 mM Hepes pH 7.5, 200 mM NaCl, 1.5 mM MgCl2×6H2O, 0.4 mM EDTA, 1% Triton-X-100, 1% Phosphatase-Inhibitor II, 20 mM β-Glycerolphosphat, 0.1% Protease-Inhibitor Cocktail III, 0.01% Benzonase) and lysates were cleared by centrifugation through a 96-well filter plate (0.65 μm). Samples were incubated with Luminex-beads which were coupled with an anti-total cKIT antibody overnight at 4° C. under gentle agitation. For detection of phospho-Y307-cKIT a phosphospecific antibody and a species-specific PE-labeled secondary antibody were added. The amount of phospho-Y307-cKIT was determined in a Luminex 200 instrument measuring 100 events per well within 60 seconds.
Counts from samples treated with compounds were calculated as percent of control from solvent treated (0.3% DMSO) samples. Dose-response curves were fitted and IC50 values were determined using Genedata Screener software.

[2] = target: T3, GIST430/654 cell line expressing mutated constitutively active cKIT receptor tyrosine kinase (Δ560-576 deletion and V654A point mutation) (Homo sapiens, UniProt P10721, DEL560-576/V654A); test: Cellular cKIT autophosphorylation (phospho-Y307-cKIT, Luminex bead assay) in GIST430/654 cells; assay type: cell-based; conditions: compounds 45 min, read-out: GIST 430/654 IC50
T3 construct: endogenous in cells; host or cells: GIST430/654 cells
T3 sequence (P10721 with tags, fused parts or gaps DEL560-576/V654A): as the sequence (P10721 with tags, fused parts or gaps DEL560-576) above, with V612A counted along it
Summary of the method: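 Phospho-Y307 cKIT in lysates was measured on a Luminex bead assay, with total-cKIT capture overnight at 4 °C and phosphospecific plus PE secondary detection. Cells had 45 min exposure to a compound dilution series the day after plating: GIST430 (Δ560-576) or GIST430/654 (Δ560-576/V654A, grown with 100 nM imatinib). IC50 values are relative to 0.3% DMSO-treated cells.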

[3] = Determination of Efflux-Ratio (ER) in Caco-2 cells; conditions: human, Caco-2, pH 7.4
Method: Determination of Efflux-Ratio (ER) in Caco-2 Cells
The efflux ratio of the test compounds was determined in Caco-2 human epithelial colorectal adenocarcinoma cell line (TC7 clone) using calculation of apparent permeability (Papp). Cell monolayers were differentiated in vitro for 14 days before the experiment. Subsequently, the test compound (in HBSS pH 7.4 at 1 μM final concentration) was applied on the donor side while HBSS buffer (pH 7.4) was added to the receiver wells. […] The plate was then incubated in a 5% CO2 incubator (37° C., 100% humidity). At the end of the 2 hours incubation period, 50 μL sample was removed from both donor and receiver wells and diluted 1:1 with equal volumes of acetonitrile for LC-MS/MS analysis. The LC-MS/MS analysis used a one-point calibration method from a 1 μM standard solution diluted 1:1 with equal volume of acetonitrile (consistent to the test samples).
The data was used to calculate the apparent permeabilities of the compounds in both apical to basolateral (Papp,AB) and basolateral to apical (Papp,BA) directions at 1 μM concentration in duplicate. The Papp values were calculated from the concentrations in the donor and receiver compartments using the following formula:
Efflux ratio was calculated according to the following formula:

T1 sequence (P10721 544-976 V654A): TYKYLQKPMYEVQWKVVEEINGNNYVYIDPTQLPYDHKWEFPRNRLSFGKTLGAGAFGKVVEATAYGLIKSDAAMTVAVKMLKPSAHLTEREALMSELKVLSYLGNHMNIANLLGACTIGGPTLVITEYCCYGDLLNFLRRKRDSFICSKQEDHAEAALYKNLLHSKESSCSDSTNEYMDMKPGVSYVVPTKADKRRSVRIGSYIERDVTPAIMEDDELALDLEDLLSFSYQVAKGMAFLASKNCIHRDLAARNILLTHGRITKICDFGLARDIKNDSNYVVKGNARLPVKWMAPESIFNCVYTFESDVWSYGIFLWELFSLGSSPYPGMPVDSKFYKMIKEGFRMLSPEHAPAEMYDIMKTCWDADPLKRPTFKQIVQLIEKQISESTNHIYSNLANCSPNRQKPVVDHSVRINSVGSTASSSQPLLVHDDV

Row | SMILES | IC50 (c-Kit(V654A)) [nM] | IC50 [1] [nM] | IC50 [2] [nM] | efflux ratio at 2 h, 1 μM [3]
1 | CO[C@@H]1CCN(c2ccc(CNc3cc(-c4cnc5ccccn45)ncn3)cn2)C1 [A146, 6-{imidazo[1,2-a]pyridin-3-yl}-N-({6-[(3R)-3-methoxypyrrolidin-1-yl]pyridin-3-yl}methyl)pyrimidin-4-amine] | 7 | 48 | 340 | < 15
2 | c1ccn2c(-c3cc(NCc4ccc(N5CCCC5)nc4)ncn3)cnc2c1 [A147, (6-imidazo[1,2-a]pyridin-3-yl-pyrimidin-4-yl)-(6-pyrrolidin-1-yl-pyridin-3-ylmethyl)-amine] | 5.4 | 7.3 | 430 | < 15
3 | F[C@H]1CCN(c2ccc(CNc3cc(-c4cnc5ccccn45)ncn3)cn2)C1 [A148, N-({6-[(3S)-3-fluoropyrrolidin-1-yl]pyridin-3-yl}methyl)-6-{imidazo[1,2-a]pyridin-3-yl}pyrimidin-4-amine] | 4.9 | 7.3 | 220 | < 15
4 | FC1(F)CCN(c2ccc(CNc3cc(-c4cnc5ccccn45)ncn3)cn2)C1 [A150, [6-(3,3-difluoro-pyrrolidin-1-yl)-pyridin-3-ylmethyl]-(6-imidazo[1,2-a]pyridin-3-yl-pyrimidin-4-yl)-amine] | 8.9 | 12 | 140 | < 15
5 | CO[C@H]1CCN(c2ccc(CNc3cc(-c4cnc5ccccn45)ncn3)cn2)C1 [A151, 6-{imidazo[1,2-a]pyridin-3-yl}-N-({6-[(3S)-3-methoxypyrrolidin-1-yl]pyridin-3-yl}methyl)pyrimidin-4-amine] | 15 | 9.9 | 300 | < 15
6 | Cn1cc(-c2ccc(CNc3cc(-c4cnc5cc(OCCO)ccn45)ncn3)cc2)cn1 [A172, 2-({3-[6-({[4-(1-methyl-1H-pyrazol-4-yl)phenyl]methyl}amino)pyrimidin-4-yl]imidazo[1,2-a]pyridin-7-yl}oxy)ethan-1-ol] | 6.3 | 2.7 | 75 | < 15
7 | Cn1ncc(-c2ccc(CNc3cc(-c4cnc5cc(OCCO)ccn45)ncn3)cc2)n1 [A173, 2-({3-[6-({[4-(2-methyl-2H-1,2,3-triazol-4-yl)phenyl]methyl}amino)pyrimidin-4-yl]imidazo[1,2-a]pyridin-7-yl}oxy)ethan-1-ol] | 3.7 | 22 | 57 | < 15
8 | Cn1cc(-c2ccc(CNc3cc(-c4cnc5cc(N6CCCC6)ccn45)ncn3)cc2)cn1 [A177, [4-(1-methyl-1H-pyrazol-4-yl)-benzyl]-[6-(7-pyrrolidin-1-yl-imidazo[1,2-a]pyridin-3-yl)-pyrimidin-4-yl]-amine] | 17 | 15 | 34 | < 15
9 | Cn1cc(-c2ccc(CNc3cc(-c4cnc5cc(N6CCC(CCO)C6)ccn45)ncn3)cc2)cn1 (stereo not shown) [A178, 2-[1-(3-{6-[4-(1-methyl-1H-pyrazol-4-yl)-benzylamino]-pyrimidin-4-yl}-imidazo[1,2-a]pyridin-7-yl)-pyrrolidin-3-yl]-ethanol] | 19 | 3.8 | 47 | < 15
10 | Cn1ncc(-c2ccc(CNc3cc(-c4cnc5cc(OCCCN6CCN(C7COC7)CC6)ccn45)ncn3)cc2)n1 [A185, [4-(2-methyl-2H-[1,2,3]triazol-4-yl)-benzyl]-(6-{7-[3-(4-oxetan-3-yl-piperazin-1-yl)-propoxy]-imidazo[1,2-a]pyridin-3-yl}-pyrimidin-4-yl)-amine] | 6.7 | 1.3 | 59 | < 15
11 | Cn1cc(-c2ccc(CNc3cc(-c4cnc5cc(OCCN6CCn7nncc7C6)ccn45)ncn3)cc2)cn1 [A217, (6-{7-[2-(6,7-dihydro-4H-[1,2,3]triazolo[1,5-a]pyrazin-5-yl)-ethoxy]-imidazo[1,2-a]pyridin-3-yl}-pyrimidin-4-yl)-[4-(1-methyl-1H-pyrazol-4-yl)-benzyl]-amine] | 7.8 | 4.4 | 76 | 15 to 50
12 | Cn1cc(-c2ccc(CNc3cc(-c4cnc5cc(OCCCNC6COC6)ccn45)ncn3)cc2)cn1 [A258, N-{[4-(1-methyl-1H-pyrazol-4-yl)phenyl]methyl}-6-(7-{3-[(oxetan-3-yl)amino]propoxy}imidazo[1,2-a]pyridin-3-yl)pyrimidin-4-amine] | 5.1 | 2.7 | 56 | < 15
13 | Cn1ncc(-c2ccc(CNc3cc(-c4cnc5cc(OCCCNC6COC6)ccn45)ncn3)cc2)n1 [A259, N-{[4-(2-methyl-2H-1,2,3-triazol-4-yl)phenyl]methyl}-6-(7-{3-[(oxetan-3-yl)amino]propoxy}imidazo[1,2-a]pyridin-3-yl)pyrimidin-4-amine] | 3.8 | 1.8 | 33 | < 15
14 | Cn1cc(-c2ccc(CNc3cc(-c4cnc5cc(OCCCN[C@@H]6CCOC6)ccn45)ncn3)cc2)cn1 [A260, N-{[4-(1-methyl-1H-pyrazol-4-yl)phenyl]methyl}-6-[7-(3-{[(3R)-oxolan-3-yl]amino}propoxy)imidazo[1,2-a]pyridin-3-yl]pyrimidin-4-amine] | 6 | 1.9 | 43 | 15 to 50
15 | Cc1nc(-c2ccc(CNc3cc(-c4cnc5cc(OCCN6CCC(=O)N(C)CC6)ccn45)ncn3)cc2)co1 [A261, 4-methyl-1-[2-({3-[6-({[4-(2-methyl-1,3-oxazol-4-yl)phenyl]methyl}amino)pyrimidin-4-yl]imidazo[1,2-a]pyridin-7-yl}oxy)ethyl]-1,4-diazepan-5-one] | 2.1 | 1.4 | 54 | < 15
16 | Cn1cc(-c2ccc(CNc3cc(-c4cnc5cc(OCCCN6CCC(C)(F)CC6)ccn45)ncn3)cc2)cn1 [A262, 6-{7-[3-(4-fluoro-4-methylpiperidin-1-yl)propoxy]imidazo[1,2-a]pyridin-3-yl}-N-{[4-(1-methyl-1H-pyrazol-4-yl)phenyl]methyl}pyrimidin-4-amine] | 5 | 4.4 | 73 | < 15
17 | CC1(F)CCN(CCCOc2ccn3c(-c4cc(NCc5ccc(-c6cocn6)cc5)ncn4)cnc3c2)CC1 [A263, 6-{7-[3-(4-fluoro-4-methylpiperidin-1-yl)propoxy]imidazo[1,2-a]pyridin-3-yl}-N-{[4-(1,3-oxazol-4-yl)phenyl]methyl}pyrimidin-4-amine] | 2.3 | 4.3 | 66 | < 15
18 | Cc1nc(-c2ccc(CNc3cc(-c4cnc5cc(OCCN6CCn7nncc7C6)ccn45)ncn3)cc2)co1 [A264, N-{[4-(2-methyl-1,3-oxazol-4-yl)phenyl]methyl}-6-[7-(2-{4H,5H,6H,7H-[1,2,3]triazolo[1,5-a]pyrazin-5-yl}ethoxy)imidazo[1,2-a]pyridin-3-yl]pyrimidin-4-amine] | 1.6 | 1.1 | 36 | 15 to 50
19 | FC(F)(F)Oc1ccc(CNc2cc(-c3cnc4cc(OCCN5CCn6nncc6C5)ccn34)ncn2)cc1 [A265, 6-[7-(2-{4H,5H,6H,7H-[1,2,3]triazolo[1,5-a]pyrazin-5-yl}ethoxy)imidazo[1,2-a]pyridin-3-yl]-N-{[4-(trifluoromethoxy)phenyl]methyl}pyrimidin-4-amine] | 6.8 | 3.3 | 78 | < 15
